Experimental data published in article PMC9516332 (Frontiers in Oncology, 2022).
Where two headings read alike, the source gives them in different places.

Columns and labels:
Assay in all cases: Kinase panel profiling at 1 µmol/L (MSA or IMAP), percentage inhibition
Format in all cases: biochemical
[1] = biological target: panel of 255 wild-type kinases (Homo sapiens, UniProt P42685); details: kinase FRK; 1 µmol/L single concentration; read-out: %-inhibition at 1 µmol/L, FRK
[2] = biological target: panel of 255 wild-type kinases (Homo sapiens, UniProt P78368); details: kinase CK1γ2; 1 µmol/L single concentration; read-out: %-inhibition at 1 µmol/L, CK1γ2
[3] = biological target: panel of 255 wild-type kinases (Homo sapiens, UniProt Q5VT25); details: MRCKα; 1 µmol/L single concentration; read-out: %-inhibition, MRCKα
[4] = biological target: panel of 255 wild-type kinases (Homo sapiens, UniProt Q16816); details: kinase PHKG1; 1 µmol/L single concentration; read-out: %-inhibition at 1 µmol/L, PHKG1
[5] = biological target: panel of 255 wild-type kinases (Homo sapiens, UniProt Q00535); details: CDK5/p25 kinase assay; 1 µmol/L single concentration; read-out: %-inhibition CDK5/p25
[6] = biological target: panel of 255 wild-type kinases (Homo sapiens, UniProt O94804); details: kinase LOK; 1 µmol/L single concentration; read-out: %-inhibition at 1 µmol/L, LOK
[7] = biological target: panel of 255 wild-type kinases (Homo sapiens, UniProt P53355); details: kinase DAPK1; 1 µmol/L single concentration; read-out: %-inhibition at 1 µmol/L, DAPK1
[8] = biological target: panel of 255 wild-type kinases (Homo sapiens, UniProt O96013); details: PAK4; 1 µmol/L single concentration; read-out: %-inhibition, PAK4
[9] = biological target: T1, panel of 255 wild-type kinases (Homo sapiens, UniProt O14965); details: 1 µmol/L single concentration
T1 sequence (O14965 1-403): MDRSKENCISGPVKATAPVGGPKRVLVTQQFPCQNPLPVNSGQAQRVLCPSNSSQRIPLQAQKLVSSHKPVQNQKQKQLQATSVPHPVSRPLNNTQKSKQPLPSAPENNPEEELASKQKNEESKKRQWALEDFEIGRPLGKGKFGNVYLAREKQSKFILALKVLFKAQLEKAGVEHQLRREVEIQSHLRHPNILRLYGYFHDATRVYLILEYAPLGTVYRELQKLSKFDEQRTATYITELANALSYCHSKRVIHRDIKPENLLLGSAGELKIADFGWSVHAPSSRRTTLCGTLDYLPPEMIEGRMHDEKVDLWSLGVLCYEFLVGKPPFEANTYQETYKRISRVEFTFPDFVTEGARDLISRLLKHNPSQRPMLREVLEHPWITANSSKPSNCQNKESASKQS

[10] = biological target: panel of 255 wild-type kinases (Homo sapiens, UniProt P57059); details: kinase SIK; 1 µmol/L single concentration; read-out: %-inhibition at 1 µmol/L, SIK
[11] = biological target: T2, panel of 255 wild-type kinases (Homo sapiens, UniProt Q92630); details: kinase DYRK2; 1 µmol/L single concentration; read-out: %-inhibition at 1 µmol/L, DYRK2
T2 sequence (Q92630 1-601): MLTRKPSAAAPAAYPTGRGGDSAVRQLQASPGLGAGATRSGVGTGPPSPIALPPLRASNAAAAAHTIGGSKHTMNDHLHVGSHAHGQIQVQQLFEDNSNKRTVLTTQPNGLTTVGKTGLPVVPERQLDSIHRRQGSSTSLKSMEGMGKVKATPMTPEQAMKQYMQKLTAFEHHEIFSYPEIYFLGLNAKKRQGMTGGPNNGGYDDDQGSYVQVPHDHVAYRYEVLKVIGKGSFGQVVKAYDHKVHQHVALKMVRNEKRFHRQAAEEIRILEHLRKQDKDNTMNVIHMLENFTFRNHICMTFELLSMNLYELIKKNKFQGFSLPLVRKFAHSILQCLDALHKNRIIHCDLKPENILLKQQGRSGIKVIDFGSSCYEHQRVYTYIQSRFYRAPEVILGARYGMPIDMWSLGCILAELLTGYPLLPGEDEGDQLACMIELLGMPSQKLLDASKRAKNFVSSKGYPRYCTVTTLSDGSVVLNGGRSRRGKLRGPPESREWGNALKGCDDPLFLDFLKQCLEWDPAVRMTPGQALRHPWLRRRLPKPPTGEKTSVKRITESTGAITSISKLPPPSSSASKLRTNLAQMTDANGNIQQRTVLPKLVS

[12] = biological target: panel of 255 wild-type kinases (Homo sapiens, UniProt P53350); details: kinase PLK1; 1 µmol/L single concentration; read-out: %-inhibition at 1 µmol/L, PLK1
[13] = biological target: panel of 255 wild-type kinases (Homo sapiens, UniProt Q9Y2H1); details: NDR2; 1 µmol/L single concentration; read-out: %-inhibition, NDR2
[14] = biological target: panel of 255 wild-type kinases (Homo sapiens, UniProt P11309); details: kinase PIM1; 1 µmol/L single concentration; read-out: %-inhibition at 1 µmol/L, PIM1
[15] = biological target: panel of 255 wild-type kinases (Homo sapiens, UniProt P49841); details: kinase GSK3β; 1 µmol/L single concentration
[16] = biological target: panel of 255 wild-type kinases (Homo sapiens, UniProt P06241); details: kinase FYN [isoform a]; 1 µmol/L single concentration; read-out: %-inhibition at 1 µmol/L, FYN [isoform a]
[17] = biological target: panel of 255 wild-type kinases (Homo sapiens, UniProt P19525); details: kinase PKR; 1 µmol/L single concentration; read-out: %-inhibition at 1 µmol/L, PKR
[18] = biological target: panel of 255 wild-type kinases (Homo sapiens, UniProt P51957); details: NEK4; 1 µmol/L single concentration; read-out: %-inhibition, NEK4
[19] = AurA kinase assay, read-out: %-inhibition AurA
[20] = AurA/TPX2 kinase assay, read-out: %-inhibition AurA/TPX2

In the case of `Cn1cnc2c(F)c(Nc3ccc(Br)cc3Cl)c(C(=O)NOCCO)cc21` [selumetinib], the inhibition at 1 µM [1] is reported as -3%, the inhibition at 1 µM [2] is reported as -1.66% and the inhibition at 1 µM [3] is reported as 2.24%. The inhibition at 1 µM [4] was -0.945%, the inhibition at 1 µM [5] was -11% and the inhibition at 1 µM [6] was 5%. For the same molecule, the inhibition at 1 µM [7] was 2.59%, the inhibition at 1 µM [8] was 4.6% and the inhibition at 1 µM [9, 19] was -5.67%. The inhibition at 1 µM [9, 20] was -8%, the inhibition at 1 µM [10] was -3% and the inhibition at 1 µM [11] was -2.7%. For the same molecule, the inhibition at 1 µM [12] was -4%, the inhibition at 1 µM [13] was -3.24% and the inhibition at 1 µM [14] was -6%. The inhibition at 1 µM [15] was -8%, the inhibition at 1 µM [16] was -3.52% and the inhibition at 1 µM [17] was 1.47%. It also gave an inhibition at 1 µM [18] of 3.45%.
With `CCN1C(=O)N(c2c(F)c(OC)cc(OC)c2F)Cc2cnc3[nH]c(CN4CCOCC4)cc3c21` [pemigatinib] the inhibition at 1 µM [1] was 10%, the inhibition at 1 µM [2] was -9% and the inhibition at 1 µM [3] was -3.23%. For the same molecule, the inhibition at 1 µM [4] was 6%, the inhibition at 1 µM [5] was -12% and the inhibition at 1 µM [6] was 4.7%. The inhibition at 1 µM [7] was -4.25%, the inhibition at 1 µM [8] was -1.88% and the inhibition at 1 µM [9, 19] was 11%. It also gave an inhibition at 1 µM [9, 20] of -4.43%, an inhibition at 1 µM [10] of 22% and an inhibition at 1 µM [11] of 12%. It also gave an inhibition at 1 µM [12] of -1.52%, an inhibition at 1 µM [13] of -1.83% and an inhibition at 1 µM [14] of -7%. It also gave an inhibition at 1 µM [15] of -7%, an inhibition at 1 µM [16] of 9% and an inhibition at 1 µM [17] of 85%. The inhibition at 1 µM [18] was 6.33%.
`Cn1cc(-c2cc3c(N4CCN(c5ncc([C@@](C)(N)c6ccc(F)cc6)cn5)CC4)ncnn3c2)cn1` [avapritinib] was tested, and the inhibition at 1 µM [1] was 25%, the inhibition at 1 µM [2] was 7% and the inhibition at 1 µM [3] was 4%. The inhibition at 1 µM [4] was -0.381%, the inhibition at 1 µM [5] was 11% and the inhibition at 1 µM [6] was 54%. It also gave an inhibition at 1 µM [7] of 0.0958%, an inhibition at 1 µM [8] of 8% and an inhibition at 1 µM [9, 19] of 4.62%. It also gave an inhibition at 1 µM [9, 20] of 10%, an inhibition at 1 µM [10] of 37% and an inhibition at 1 µM [11] of 56%. The inhibition at 1 µM [12] was -1.53%, the inhibition at 1 µM [13] was -2.84% and the inhibition at 1 µM [14] was 24%. For the same molecule, the inhibition at 1 µM [15] was -5.32%, the inhibition at 1 µM [16] was 57% and the inhibition at 1 µM [17] was 9%. The inhibition at 1 µM [18] was 12%.
In the case of `C[C@H](Nc1ncnc2nc[nH]c12)c1cc2cccc(Cl)c2c(=O)n1-c1ccccc1` [duvelisib], the inhibition at 1 µM [1] is reported as -2.26%, the inhibition at 1 µM [2] is reported as 2.74% and the inhibition at 1 µM [3] is reported as -3.44%. The inhibition at 1 µM [4] was -1.8%, the inhibition at 1 µM [5] was -11% and the inhibition at 1 µM [6] was 0.582%. The inhibition at 1 µM [7] was -3.23%, the inhibition at 1 µM [8] was 0.277% and the inhibition at 1 µM [9, 19] was -4.54%. It also gave an inhibition at 1 µM [9, 20] of 1.81%, an inhibition at 1 µM [10] of -1.9% and an inhibition at 1 µM [11] of 8%. The inhibition at 1 µM [12] was 0.784%, the inhibition at 1 µM [13] was -0.151% and the inhibition at 1 µM [14] was -0.908%. The inhibition at 1 µM [15] was -0.808%, the inhibition at 1 µM [16] was 0.67% and the inhibition at 1 µM [17] was 2.64%. For the same molecule, the inhibition at 1 µM [18] was -2.34%.
